Source: patent US20130197085A1, “AGENT AND METHOD FOR STABILIZING MEMBRANE PROTEIN” (priority 2007, published 2013)

Key:
wild-type BSEP = molecular target: T1, wild-type BSEP (Homo sapiens, UniProt O95342, L339V); assay: Treatment with actinomycin D and cycloheximide, upregulation of mature BSEP by 4PBA in MDCKII cells; format: cell-based; details: 1 mM 4PBA, 8 hours
T1 construct: expressed in transfected cells; host or cells: MDCKII cells infected with recombinant adenovirus
Protocol: (§1) MDCKII cells were dispersed on a 6-well plate, resulting in a density of 2.5×10^5 cells/well. After completion of the culture for 24 hours, the confluent cells were infected with recombinant adenoviruses having the cDNAs of wild-type, E297G and D482G BSEPs, and GFP, at 200 MOI. After completion of the infection, the cells were cultured for 36 hours. Thereafter, in order to inhibit mRNA synthesis, the cells were treated in the presence or absence of 5 μg/ml actinomycin D (Sigma). Otherwise, in order to inhibit protein synthesis, the cells were treated in the presence or absence of 20 μg/ml cycloheximide (Sigma). After completion of the treatment for 2 hours, in the presence or absence of actinomycin D or in the presence or absence of cycloheximide, 4PBA was added to the cells to a concentration of 1 mM. At the time point of 6 hours (E297G and D482G BSEPs) or 8 hours (wild-type BSEP) after the 4PBA treatment, a crude membrane fraction was prepared. The obtained fraction was separated by 6% SDS-PAGE, and Western blotting was then carried out.

E297G BSEP = molecular target: T2, E297G BSEP (Homo sapiens, UniProt O95342, E297G/L339V); assay: as above; format: cell-based; details: 1 mM 4PBA, 6 hours
T2 construct: expressed in transfected cells; host or cells: MDCKII cells infected with recombinant adenovirus
T2 sequence (O95342 whole entry E297G/L339V): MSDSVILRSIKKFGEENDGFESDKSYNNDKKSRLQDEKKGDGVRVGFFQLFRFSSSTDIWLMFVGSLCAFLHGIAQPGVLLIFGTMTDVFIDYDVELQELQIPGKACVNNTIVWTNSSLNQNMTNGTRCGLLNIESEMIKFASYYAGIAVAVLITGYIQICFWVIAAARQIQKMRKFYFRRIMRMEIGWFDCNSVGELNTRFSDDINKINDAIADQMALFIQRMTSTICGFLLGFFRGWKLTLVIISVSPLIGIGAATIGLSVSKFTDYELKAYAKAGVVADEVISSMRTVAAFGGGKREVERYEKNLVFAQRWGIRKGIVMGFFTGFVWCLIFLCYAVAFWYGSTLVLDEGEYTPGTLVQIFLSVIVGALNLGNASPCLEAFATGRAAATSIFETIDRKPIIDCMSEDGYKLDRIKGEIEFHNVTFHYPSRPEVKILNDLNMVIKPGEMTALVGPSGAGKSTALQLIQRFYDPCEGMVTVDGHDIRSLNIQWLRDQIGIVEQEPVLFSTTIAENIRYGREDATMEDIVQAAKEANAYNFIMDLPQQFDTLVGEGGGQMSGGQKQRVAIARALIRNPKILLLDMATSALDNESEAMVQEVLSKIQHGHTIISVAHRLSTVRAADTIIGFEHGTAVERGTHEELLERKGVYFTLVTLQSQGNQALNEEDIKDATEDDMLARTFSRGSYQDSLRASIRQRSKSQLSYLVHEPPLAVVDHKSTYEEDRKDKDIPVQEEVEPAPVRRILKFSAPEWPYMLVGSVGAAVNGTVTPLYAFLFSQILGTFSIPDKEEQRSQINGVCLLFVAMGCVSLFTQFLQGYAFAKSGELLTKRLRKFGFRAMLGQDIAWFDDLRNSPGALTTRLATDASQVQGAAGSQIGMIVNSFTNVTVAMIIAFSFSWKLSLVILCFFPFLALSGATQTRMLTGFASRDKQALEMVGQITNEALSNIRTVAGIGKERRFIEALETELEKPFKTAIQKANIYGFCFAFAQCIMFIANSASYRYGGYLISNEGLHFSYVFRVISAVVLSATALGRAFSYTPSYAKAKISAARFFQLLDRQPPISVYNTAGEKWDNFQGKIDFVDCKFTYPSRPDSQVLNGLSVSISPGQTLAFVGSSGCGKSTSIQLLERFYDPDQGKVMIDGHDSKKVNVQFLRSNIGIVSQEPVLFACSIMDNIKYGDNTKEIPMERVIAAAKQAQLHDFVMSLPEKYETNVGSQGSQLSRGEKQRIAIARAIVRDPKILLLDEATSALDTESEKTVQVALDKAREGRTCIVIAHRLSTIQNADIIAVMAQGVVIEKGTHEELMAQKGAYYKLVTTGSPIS
Protocol: as §1

D482G BSEP = molecular target: T3, D482G BSEP (Homo sapiens, UniProt O95342, D482G/L339V); assay: as above; format: cell-based; details: 1 mM 4PBA, 6 hours
T3 construct: expressed in transfected cells; host or cells: MDCKII cells infected with recombinant adenovirus
T3 sequence (O95342 whole entry L339V/D482G): as the sequence (O95342 whole entry E297G/L339V) above, with G297E, D482G counted along it
Protocol: as §1

DPPIV = assay: Western blotting of canalicular membrane vesicles (CMVs) from treated rats; format: in vivo, SD rat; details: CMVs from SD rats treated at 0.6 g/kg/day for 10 days
Protocol: (§2) […] 4PBA or a vehicle was given to a male SD rat (6- to 7-week-old) for 10 days, divided over 3 administrations. Canalicular membrane vesicles were prepared from the liver of the rat (Akita et al., Biochim Biophys Acta, 1511: 7-16, 2001), and they were then used in Western blotting and a transport assay. Such transport assay was carried out by a rapid filtration method (Hayashi et al., Biochim Biophys Acta, 1738: 54-62, 2005).

P-gp = assay: as above; format: in vivo, SD rat; details: CMVs from SD rats treated at 0.6 g/kg/day for 10 days
Protocol: as §2

[1] = molecular target: T4, BSEP on canalicular membrane (Rattus norvegicus, UniProt O70127); assay: Transport assay using canalicular membrane vesicles (CMVs) from treated rats; format: in vivo, SD rat
T4 construct: from tissue; host or cells: liver of male SD rats: in vivo for A27, canalicular membrane vesicles for A28 and A29
T4 sequence (O70127 1-1321): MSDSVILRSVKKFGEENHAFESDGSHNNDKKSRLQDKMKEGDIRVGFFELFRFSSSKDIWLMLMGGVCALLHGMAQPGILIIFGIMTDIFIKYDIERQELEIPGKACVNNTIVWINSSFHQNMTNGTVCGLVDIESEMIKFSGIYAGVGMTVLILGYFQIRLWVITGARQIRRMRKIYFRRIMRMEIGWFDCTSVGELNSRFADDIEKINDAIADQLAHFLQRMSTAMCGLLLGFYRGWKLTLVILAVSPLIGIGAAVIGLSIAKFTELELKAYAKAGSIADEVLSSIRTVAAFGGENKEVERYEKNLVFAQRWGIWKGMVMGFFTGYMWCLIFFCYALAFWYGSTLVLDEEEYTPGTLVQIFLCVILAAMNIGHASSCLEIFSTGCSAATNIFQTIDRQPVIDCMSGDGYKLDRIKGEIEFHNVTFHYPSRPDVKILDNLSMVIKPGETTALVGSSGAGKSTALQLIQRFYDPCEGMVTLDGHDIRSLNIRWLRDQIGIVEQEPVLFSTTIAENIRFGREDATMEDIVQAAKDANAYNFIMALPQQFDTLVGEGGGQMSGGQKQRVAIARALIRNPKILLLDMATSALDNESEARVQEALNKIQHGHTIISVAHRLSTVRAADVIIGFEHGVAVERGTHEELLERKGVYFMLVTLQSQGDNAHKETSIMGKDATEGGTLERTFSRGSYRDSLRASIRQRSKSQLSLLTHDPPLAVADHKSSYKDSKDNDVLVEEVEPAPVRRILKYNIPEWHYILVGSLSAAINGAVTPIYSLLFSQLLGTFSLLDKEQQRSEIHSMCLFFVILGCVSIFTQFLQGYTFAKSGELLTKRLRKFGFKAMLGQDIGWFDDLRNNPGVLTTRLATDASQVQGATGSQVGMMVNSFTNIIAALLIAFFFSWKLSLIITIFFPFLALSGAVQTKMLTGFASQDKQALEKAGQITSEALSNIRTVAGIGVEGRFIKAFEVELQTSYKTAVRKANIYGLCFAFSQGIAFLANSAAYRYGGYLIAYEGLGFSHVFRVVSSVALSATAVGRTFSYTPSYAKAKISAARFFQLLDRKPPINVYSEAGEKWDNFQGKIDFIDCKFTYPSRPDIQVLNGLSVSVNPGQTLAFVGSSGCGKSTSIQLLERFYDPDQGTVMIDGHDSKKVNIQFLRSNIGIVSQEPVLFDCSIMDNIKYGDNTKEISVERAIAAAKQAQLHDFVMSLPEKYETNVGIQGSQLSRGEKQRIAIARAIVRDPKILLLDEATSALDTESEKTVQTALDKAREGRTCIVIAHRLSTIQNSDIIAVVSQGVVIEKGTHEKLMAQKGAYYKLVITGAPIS
Protocol: as §2

extrinsic P-gp = assay: Cell surface biotinylation method, expression on the surface of MDCKII cells; format: cell-based; details: 1 mM, 24 hours
[2] = tested on: MDCKII cells expressing GFP; assay: Transcellular transport assay of [^3H] TC across MDCKII monolayer, GFP control cells; format: cell-based; details: 24 hours
Protocol: MDCKII cells were dispersed on a Transwell membrane insert (pore size: […]; Falcon) of a 24-well plate, resulting in a density of 1.5×10^5 cells/insert. Two days after the culture, the confluent cells were infected with recombinant adenoviruses having the cDNAs of wild-type, E297G and D482G BSEPs, and GFP, at 50 MOI. […] After completion of the treatment for 24 hours, a transcellular transport assay was carried out (see Mita et al., Am J Physiol Gastrointest Liver Physiol 290: G550-G556, 2006).
The apparent efflux clearance across the apical membrane (PSapical) was calculated by dividing a steady rate of the transcellular transport of [^3H] TC for 2 hours by the intracellular concentration of the [^3H] TC at the termination of the experiment (2 hours later).

T1 sequence (O95342 whole entry L339V): as the sequence (O95342 whole entry E297G/L339V) above, with G297E counted along it

O=C(O)CCCc1ccccc1 [4PBA, 4-phenylbutyric acid]
effect of transcription inhibition by actinomycin D on the increase in expression of mature BSEP due to 4PBA (wild-type BSEP; actinomycin D 5 μg/ml): did not affect | effect of translation inhibition by cycloheximide on the increase in expression of mature BSEP due to 4PBA (wild-type BSEP; cycloheximide 20 μg/ml): did not affect | effect of transcription inhibition by actinomycin D on the increase in expression of mature BSEP due to 4PBA (E297G BSEP; actinomycin D 5 μg/ml): did not affect | effect of translation inhibition by cycloheximide on the increase in expression of mature BSEP due to 4PBA (E297G BSEP; cycloheximide 20 μg/ml): did not affect | effect of transcription inhibition by actinomycin D on the increase in expression of mature BSEP due to 4PBA (D482G BSEP; actinomycin D 5 μg/ml): did not affect | effect of translation inhibition by cycloheximide on the increase in expression of mature BSEP due to 4PBA (D482G BSEP; cycloheximide 20 μg/ml): did not affect | expression level of DPPIV in CMVs (DPPIV): not changed | expression level of P-gp in CMVs (P-gp): not changed | ATP-dependent uptake of [^3H] TC by CMVs, higher than CMVs from vehicle-treated rats ([1]; CMVs from SD rats treated at 0.6 g/kg/day for 10 days): 3 times | Vmax value of [^3H] TC uptake by CMVs ([1]; CMVs from SD rats treated with 4PBA at 0.6 g/kg/day for 10 days): 1,000±110 | expression of extrinsic P-gp (extrinsic P-gp): not influenced | efflux of [^3H] TC from the apical side to the base side ([2]; 1 mM): did not influence | efflux of [^3H] TC from the base side to the apical side ([2]; 1 mM): such effects were not observed | PSapical value ([2]; 4PBA treatment 1 mM): no changes
